One test deals with Sprague-Dawley rats. The test is described as follows: Two-trial novel object recognition in scopolamine treated rats. The settings on record: 0.3 mg/kg. The class given is in vivo, rat. The procedure:
Ennaceur, A., and Delacour, J. (1988), Behav. Brain Res. 31:47-59. […] See, e.g., Scali, C., et al., (1994), Neurosci. Letts. […] 53:277-283.
Male Sprague-Dawley rats between six and seven weeks old, weighing between 220-300 grams are obtained from Centre d'Elevage (Rue Janvier, B. P. 55, Le Genest-Saint-Isle 53940, France). The animals are housed in groups of 2 to 4 in polypropylene cages (with a floor area of 1032 cm^2) under standard conditions: at RT (22±2° C.), under a 12 h light/12 h dark cycle, with food and water provided ad libitum.
The experimental arena is a square wooden box (60 cm×60 cm×40 cm) painted dark blue, with 15 cm×15 cm black squares under a clear plexiglass floor. The arena and objects placed inside the arena are cleaned with water between each trial to eliminate any odor trails left by rats. […]
Novel object recognition test is comprised of two trials separated by an interval of 120 min. or 24 hours. […] The time required for each animal to complete 15 seconds of object exploration is determined, with a cut-off time of four min. […] Rats are placed back in the arena for three min., and exploration of both objects is determined. Locomotor activity of rats (number of times rats cross grid lines visible under the clear plexiglass floor) is scored for during T1 and T2. […]
Recognition scores and % of good learners for compounds of the invention are determined.

Test [1] addresses human recombinant dopamine D2S receptor (Homo sapiens, UniProt P14416). The test is described as follows: Dopamine D2S [35S]GTPγS functional assay (SPA, CHO membranes). The settings on record: read-out: D2S GTPgS % Inhibition. The class given is biochemical. The procedure: To determine for agonist or antagonist activity of compounds of the invention in functional assays, human recombinant dopamine D2S receptor stably expressed in Chinese hamster ovary (CHO) cells (Gilliland S L and Alper R H. Naunyn-Schmiedeberg's Archives of Pharmacology. 361: 498, 2000) was used. Compounds of invention were pre-incubated with the membranes (0.05 mg/mL) and 3 µM GDP in modified HEPES buffer (20 mM HEPES, pH 7.4, 100 mM NaCl, 10 mM MgCl2, 1 mM DTT, 1 mM EDTA) for 20 min. and Scintillation Proximity Assay (SPA) beads were then added for another 60 min. at 30° C. The reaction was initiated by 0.3 nM [^35S]GTPγS for an additional 30 min. incubation period. […] Compounds were screened at […] or lower, using 0.4% DMSO as vehicle. Assay results are presented as the percent response of specific binding in Table 13.

Test [2] addresses T1, human recombinant serotonin 5-HT7 receptor (Homo sapiens, UniProt P34969).
T1 construct: expressed in transfected cells; host or cells: CHO cells
The test can be described thus: 5-HT7 antagonist functional assay (cAMP, HTRF, CHO cells). The settings on record: vs 100 nM 5-HT. The format is cell-based. The source says: To determine for agonist or antagonist activity of compounds of the invention in functional assays, human recombinant serotonin 5-HT2A receptor expressed in human embryonic kidney (HEK-293) cells (Jerman J C, Brough S J, Gager T, Wood M, Coldwell M C, Smart D and Middlemiss D N, Eur J Pharmacol, 414: 23-30, 2001) or human recombinant serotonin 5-HT7 receptor expressed in CHO cells (Adham, et al. J. Pharmacol. Exp. Ther. 287:508-514, 1998) was used. Cells were suspended in DMEM buffer, and distributed in microplates. For the 5-HT2A assay, a cytoplasmic calcium fluorescent indicator which varies proportionally to the free cytosolic Ca^2+ ion concentration was mixed with probenicid in HBSS buffer complemented with 20 mM Hepes (pH 7.4), added into each well and equilibrated with the cells for 30 min. at 37° C. followed by 30 min. at 22° C. For the 5-HT7 assay, the reaction product was cAMP, detected by HTRF.
The standard reference antagonist was ketanserin (5-HT2A) or mesulergine (5-HT7), which was tested in each experiment at several concentrations to generate a concentration-response curve from which its IC50 value was calculated. Compounds were screened at […] or lower, using DMSO as vehicle.
For orientation: In TR-FRET formats the signal depends on donor and acceptor labels being close together.

“And” between values parts separate entries of the source, which are not always exact repeats. Equal values may be shown once.

human recombinant dopamine D2S receptor, sequence (P14416 1-414 isoform P14416-2): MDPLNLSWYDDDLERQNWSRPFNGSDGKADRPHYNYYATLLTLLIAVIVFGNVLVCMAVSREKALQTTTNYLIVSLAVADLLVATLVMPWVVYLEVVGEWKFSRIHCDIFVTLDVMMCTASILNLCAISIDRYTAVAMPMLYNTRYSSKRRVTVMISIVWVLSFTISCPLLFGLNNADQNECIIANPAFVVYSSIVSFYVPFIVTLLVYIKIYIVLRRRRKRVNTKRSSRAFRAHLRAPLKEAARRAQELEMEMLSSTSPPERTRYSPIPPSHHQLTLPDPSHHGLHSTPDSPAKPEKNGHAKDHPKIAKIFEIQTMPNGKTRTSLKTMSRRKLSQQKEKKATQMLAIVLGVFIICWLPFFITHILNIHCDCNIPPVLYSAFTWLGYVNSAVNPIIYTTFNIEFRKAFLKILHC
T1 sequence (P34969 whole entry): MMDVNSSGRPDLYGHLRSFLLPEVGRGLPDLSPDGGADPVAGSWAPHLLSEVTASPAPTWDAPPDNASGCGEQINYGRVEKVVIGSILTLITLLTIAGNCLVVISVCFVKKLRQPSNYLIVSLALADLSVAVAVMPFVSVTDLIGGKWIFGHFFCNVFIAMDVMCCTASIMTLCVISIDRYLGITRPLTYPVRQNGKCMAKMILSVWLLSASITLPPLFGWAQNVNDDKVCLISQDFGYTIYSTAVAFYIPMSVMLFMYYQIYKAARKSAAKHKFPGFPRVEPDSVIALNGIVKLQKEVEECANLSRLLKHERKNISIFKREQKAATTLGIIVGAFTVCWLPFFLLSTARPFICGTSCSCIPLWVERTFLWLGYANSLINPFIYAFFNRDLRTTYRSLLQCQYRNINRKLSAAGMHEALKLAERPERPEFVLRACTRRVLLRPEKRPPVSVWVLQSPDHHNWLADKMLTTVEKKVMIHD

In the case of `C/C(=C\n1c2c(c3cc(Cl)ccc31)CN(C)CC2)c1ccncc1` [Compound 90, (E)-8-chloro-2,3,4,5-tetrahydro-2-methyl-5-(2-(pyridin-4-yl)prop-1-enyl)-1H-pyrido[4,3-b]indole], the “activity in object recognition in the presence of scopolamine” value in the test on Sprague-Dawley rats is “activity”.
The term inhibition denotes the percentage by which the read-out fell short of the control. A word on the IC50: it is the concentration at which inhibition is half-maximal. On to `C/C(=C\n1c2c(c3cc(Cl)ccc31)CN(C)CC2)c1ccc(F)cc1` [Compound 83, (E)-8-chloro-5-(2-(4-fluorophenyl)prop-1-enyl)-2,3,4,5-tetrahydro-2-methyl-1H-pyrido[4,3-b]indole], for which the inhibition at 0.001 µM in test [1] (conc. 1 nM) amounted to 15%. Besides, the inhibition at 0.003 µM in test [1] (conc. 3 nM) turned out to be 45%. For the same molecule, the inhibition at 0.01 µM in test [1] (conc. 10 nM) was 56%. Further, the inhibition at 0.03 µM in test [1] (conc. 30 nM) was found to be 74%. For the same molecule, in test [1] (conc. 100 nM), the inhibition at 0.1 µM turned out to be 91%. Moreover, the half-inhibitory concentration (IC50) in test [2] was 460 nM and 770 nM.

Values taken from patent publication US8906925B2, “Pyrido[4,3-B]indoles containing rigid moieties” (Medivation Technologies, Inc., priority 2008, dated 2014).
